Assay [1] concerns the target Melanin-concentrating hormone receptor 1 (Homo sapiens, UniProt Q99705). In words: Fluorescence-based counterscreen for antagonists of the G-protein coupled receptor 7 (GPR7): cell-based high throughput dose response assay to identify antagonists of the melanin-concentrating hormone receptor 1 (MCHR1). It counts as functional. (Counterscreens check selectivity or assay interference.)

Assay [2] is described as follows: cytotoxicity in KRAS-transformed pancreatic duct cells, primary screen, cell-based, fluorescence, HTS (AID 431).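 Also: cell line used: HPDE-C7K.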 The format is functional. As to conditions: Homo sapiens.
The target of assay [3] is Neuropeptides B/W receptor type 1 (Homo sapiens, UniProt P48145). In words: Fluorescence-based dose response cell-based high throughput screening assay to identify antagonists of the G-protein coupled receptor 7 (GPR7). [Related pubchem assays: 1952 (Screening assay (GPR7 antagonists).), 1880 (Summary AID.)]. It counts as functional.
Neuropeptides B/W receptor type 1, sequence (P48145 whole entry): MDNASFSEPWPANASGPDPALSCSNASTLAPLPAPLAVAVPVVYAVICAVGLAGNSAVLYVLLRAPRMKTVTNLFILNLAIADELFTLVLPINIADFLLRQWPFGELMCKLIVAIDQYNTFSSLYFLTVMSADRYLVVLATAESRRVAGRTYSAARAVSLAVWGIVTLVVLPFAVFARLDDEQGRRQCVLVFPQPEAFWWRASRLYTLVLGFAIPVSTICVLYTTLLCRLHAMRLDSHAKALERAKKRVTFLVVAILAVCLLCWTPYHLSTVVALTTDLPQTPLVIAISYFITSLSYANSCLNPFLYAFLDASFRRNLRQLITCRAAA
The nature of assay [4]: cytotoxicity in HPDE-C7 cells, cell-based, fluorescence, HTS (AID 430). The format is functional. As to conditions: Homo sapiens.
Assay [5] addresses T1, Eukaryotic translation initiation factor 2-alpha kinase 3 (Homo sapiens, UniProt Q9NZJ5). In words: Counterscreen assay for PERK inhibitors: Dose response cell-based high throughput screening assay to measure inhibition of PERK at 6 hours. [Related pubchem assays: 1522, 1416 ]. It counts as functional.
In assay [6] the target is T1, Eukaryotic translation initiation factor 2-alpha kinase 3. In words: Dose response cell-based high-throughput screening assay to measure PERK inhibition. [Related pubchem assays: 1416 ]. The format is functional.
The target in assay [7] is Aspartyl aminopeptidase (Plasmodium falciparum 3D7, UniProt Q8I2J3).
Aspartyl aminopeptidase, sequence (Q8I2J3 whole entry): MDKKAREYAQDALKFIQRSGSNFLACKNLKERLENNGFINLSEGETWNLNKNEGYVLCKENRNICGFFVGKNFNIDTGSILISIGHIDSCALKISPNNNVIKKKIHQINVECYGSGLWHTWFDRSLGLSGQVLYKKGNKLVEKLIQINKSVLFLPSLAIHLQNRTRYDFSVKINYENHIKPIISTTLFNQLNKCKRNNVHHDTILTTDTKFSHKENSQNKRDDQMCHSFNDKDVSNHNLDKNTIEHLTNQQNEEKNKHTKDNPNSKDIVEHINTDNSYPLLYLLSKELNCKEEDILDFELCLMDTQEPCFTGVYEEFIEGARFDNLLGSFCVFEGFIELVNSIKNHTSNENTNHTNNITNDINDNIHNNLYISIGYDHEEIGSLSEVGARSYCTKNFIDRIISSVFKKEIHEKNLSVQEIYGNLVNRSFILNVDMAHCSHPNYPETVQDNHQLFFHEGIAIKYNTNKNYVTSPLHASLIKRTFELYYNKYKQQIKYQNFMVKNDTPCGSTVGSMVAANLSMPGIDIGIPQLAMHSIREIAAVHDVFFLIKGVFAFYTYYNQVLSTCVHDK
Assay [8] has as its target Cytochrome P450 3A4 (Homo sapiens, UniProt P08684). As to conditions: Potency.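 Also: confirmatory qHTS run detecting inhibitors and substrates of CYP3A4.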
Assay [9] concerns the target Procathepsin L (Homo sapiens, UniProt P07711).
A short description of assay [10]: Luminescence Cell-Based Dose Response HTS to Identify Inhibitors of 5'UTR Stem-Loop Driven Prion Protein mRNA Translation in H4 Neuroglioblastoma Cells. [Related pubchem assays: 1827 (Project Summary), 1813 (Primary HTS)]. The format is functional.
Assay [11] in a line: inhibitors of firefly luciferase expression or activity, dose response, H4 neuroglioma cells, luminescence (AID 1990). The format is functional, cell-based.
The target of assay [12] is T2, Ion channel NompC (Danio rerio, UniProt Q7T1G6). In words: TRPML3 and TRPML2 channel agonists, cell-based, patch clamp, Fura-2 profiling panel, panel member TRPN1 Dose Response (AID 2116). For orientation: The patch-clamp technique gives a direct electrical read-out from membranes.
T2 sequence (Q7T1G6 whole entry): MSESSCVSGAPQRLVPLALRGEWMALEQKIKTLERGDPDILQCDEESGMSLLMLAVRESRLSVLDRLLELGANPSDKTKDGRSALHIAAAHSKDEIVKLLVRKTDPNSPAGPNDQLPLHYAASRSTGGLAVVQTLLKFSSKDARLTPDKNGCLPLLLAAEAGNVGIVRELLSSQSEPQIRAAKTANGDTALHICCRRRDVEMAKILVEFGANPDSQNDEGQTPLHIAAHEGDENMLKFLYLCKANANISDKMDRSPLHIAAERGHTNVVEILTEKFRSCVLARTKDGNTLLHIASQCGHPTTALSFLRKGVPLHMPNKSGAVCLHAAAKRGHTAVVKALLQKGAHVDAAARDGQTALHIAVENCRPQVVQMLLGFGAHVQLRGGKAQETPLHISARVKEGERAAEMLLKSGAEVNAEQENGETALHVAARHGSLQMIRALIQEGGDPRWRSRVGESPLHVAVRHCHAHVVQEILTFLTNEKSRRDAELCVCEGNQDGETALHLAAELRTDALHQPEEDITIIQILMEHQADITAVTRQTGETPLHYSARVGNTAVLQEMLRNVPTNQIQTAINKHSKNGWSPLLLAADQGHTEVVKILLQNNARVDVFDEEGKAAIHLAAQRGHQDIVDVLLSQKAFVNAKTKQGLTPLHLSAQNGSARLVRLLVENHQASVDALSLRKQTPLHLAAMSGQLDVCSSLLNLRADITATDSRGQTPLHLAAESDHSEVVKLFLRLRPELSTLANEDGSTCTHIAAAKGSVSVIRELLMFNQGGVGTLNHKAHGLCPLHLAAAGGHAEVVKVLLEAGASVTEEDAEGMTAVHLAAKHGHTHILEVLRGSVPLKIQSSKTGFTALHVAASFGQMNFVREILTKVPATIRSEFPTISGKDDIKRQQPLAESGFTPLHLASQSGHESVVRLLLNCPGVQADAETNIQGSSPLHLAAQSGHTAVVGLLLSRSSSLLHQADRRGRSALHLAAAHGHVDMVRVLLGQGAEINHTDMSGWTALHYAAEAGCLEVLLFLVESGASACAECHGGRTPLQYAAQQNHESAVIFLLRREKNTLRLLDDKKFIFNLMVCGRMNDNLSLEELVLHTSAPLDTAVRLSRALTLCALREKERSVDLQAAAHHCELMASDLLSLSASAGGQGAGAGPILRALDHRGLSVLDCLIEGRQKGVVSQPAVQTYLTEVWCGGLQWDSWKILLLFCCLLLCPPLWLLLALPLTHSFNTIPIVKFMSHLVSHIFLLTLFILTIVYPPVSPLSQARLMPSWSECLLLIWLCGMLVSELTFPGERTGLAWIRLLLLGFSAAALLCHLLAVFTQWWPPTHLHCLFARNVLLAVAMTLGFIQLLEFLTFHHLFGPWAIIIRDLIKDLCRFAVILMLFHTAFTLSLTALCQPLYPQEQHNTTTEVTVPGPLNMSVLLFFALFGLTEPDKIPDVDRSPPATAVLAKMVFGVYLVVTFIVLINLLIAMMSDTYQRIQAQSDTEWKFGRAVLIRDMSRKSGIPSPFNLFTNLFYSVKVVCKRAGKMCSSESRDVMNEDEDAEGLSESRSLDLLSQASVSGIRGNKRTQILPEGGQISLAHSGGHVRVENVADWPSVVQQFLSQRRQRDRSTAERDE
Assay [13] has as its target T3, Mucolipin-3 (Homo sapiens, UniProt Q8TDD5).
T3 sequence (Q8TDD5 whole entry): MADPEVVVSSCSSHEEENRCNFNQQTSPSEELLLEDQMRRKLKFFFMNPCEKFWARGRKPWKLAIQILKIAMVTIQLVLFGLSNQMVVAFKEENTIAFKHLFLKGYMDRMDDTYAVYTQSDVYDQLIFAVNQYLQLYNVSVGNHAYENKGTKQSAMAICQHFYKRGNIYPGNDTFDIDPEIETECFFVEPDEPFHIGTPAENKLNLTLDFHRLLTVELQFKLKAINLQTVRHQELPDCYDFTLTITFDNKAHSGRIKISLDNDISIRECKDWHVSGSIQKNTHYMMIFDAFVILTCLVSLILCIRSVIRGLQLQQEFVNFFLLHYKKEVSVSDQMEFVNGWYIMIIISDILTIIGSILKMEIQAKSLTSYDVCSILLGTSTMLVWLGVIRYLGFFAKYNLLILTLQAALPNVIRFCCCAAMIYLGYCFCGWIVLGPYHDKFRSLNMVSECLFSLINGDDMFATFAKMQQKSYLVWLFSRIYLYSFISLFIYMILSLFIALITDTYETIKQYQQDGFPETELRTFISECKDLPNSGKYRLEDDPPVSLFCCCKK
In words: Dose response cell-based high-throughput screening assay for agonists of the transient receptor potential channel ML3 (TRPML3). [Related pubchem assays: 1526, 1424, 1448 ]. It counts as functional.

A short description of assay [14]: cytotoxicity in HEK-293T cells, dose response, cytotoxicity control for TCR NF-kB inhibitor project, luminescence, T-cell screen hits (AID 489026).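 Also: cells exposed to compound about 14 hours before the viability readout.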 It counts as functional, cell-based.
The target of assay [15] is T3, Mucolipin-3. In words: TRPML3 and TRPML2 channel agonists, cell-based, patch clamp, Fura-2 profiling panel, panel member TRPML3 Dose Response (AID 2116).
Assay [16] concerns the target T2, Ion channel NompC. In words: Fluorescence counterscreen assay for TRPML3 agonists: dose response cell-based high-throughput screening assay to identify agonists of the transient receptor potential channel N1 (TRPN1). [Related pubchem assays: 1526, 1424, 1448 ]. It counts as functional.
Assay [17] can be described thus: inhibitors of SNCA 5'UTR-driven reporter translation, confirmation, H4 neuroglioma cells, luminescence (AID 1988). It counts as functional, cell-based.

Structures are written as SMILES. Calls of active or inactive are those of the source. Where only a bound is given, the exact number is not on record here.

This is an account of results in ChEMBL document CHEMBL1201862, “PubChem BioAssay data set” (2004).

T1 sequence (Q9NZJ5 whole entry): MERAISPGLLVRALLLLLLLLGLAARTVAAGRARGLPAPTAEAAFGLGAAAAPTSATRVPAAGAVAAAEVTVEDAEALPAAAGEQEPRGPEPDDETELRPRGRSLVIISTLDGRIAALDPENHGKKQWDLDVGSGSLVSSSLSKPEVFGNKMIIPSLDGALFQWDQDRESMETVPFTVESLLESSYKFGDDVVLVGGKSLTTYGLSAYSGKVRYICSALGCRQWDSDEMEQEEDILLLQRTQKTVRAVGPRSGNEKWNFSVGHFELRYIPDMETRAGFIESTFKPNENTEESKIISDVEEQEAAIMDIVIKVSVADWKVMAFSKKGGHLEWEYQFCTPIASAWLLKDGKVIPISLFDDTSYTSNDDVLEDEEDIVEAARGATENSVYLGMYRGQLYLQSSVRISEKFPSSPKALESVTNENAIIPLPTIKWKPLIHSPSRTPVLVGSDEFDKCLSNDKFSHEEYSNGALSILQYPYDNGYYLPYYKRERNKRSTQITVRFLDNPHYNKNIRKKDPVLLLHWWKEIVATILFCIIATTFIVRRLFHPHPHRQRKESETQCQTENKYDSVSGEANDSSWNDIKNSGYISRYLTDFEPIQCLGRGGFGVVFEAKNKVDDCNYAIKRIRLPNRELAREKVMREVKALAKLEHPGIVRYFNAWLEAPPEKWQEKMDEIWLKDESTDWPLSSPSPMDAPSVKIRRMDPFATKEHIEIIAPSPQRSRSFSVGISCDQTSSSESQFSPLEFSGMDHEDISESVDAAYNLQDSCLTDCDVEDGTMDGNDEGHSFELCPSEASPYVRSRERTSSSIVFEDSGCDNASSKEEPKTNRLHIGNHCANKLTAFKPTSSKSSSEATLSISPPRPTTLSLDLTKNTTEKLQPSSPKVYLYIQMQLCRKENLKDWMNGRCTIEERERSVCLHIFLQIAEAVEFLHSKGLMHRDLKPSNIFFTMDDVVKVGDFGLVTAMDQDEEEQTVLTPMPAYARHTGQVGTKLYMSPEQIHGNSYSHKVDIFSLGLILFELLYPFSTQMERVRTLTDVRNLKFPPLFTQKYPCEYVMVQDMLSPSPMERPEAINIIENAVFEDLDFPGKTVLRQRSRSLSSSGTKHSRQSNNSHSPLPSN
Melanin-concentrating hormone receptor 1, sequence (Q99705 whole entry): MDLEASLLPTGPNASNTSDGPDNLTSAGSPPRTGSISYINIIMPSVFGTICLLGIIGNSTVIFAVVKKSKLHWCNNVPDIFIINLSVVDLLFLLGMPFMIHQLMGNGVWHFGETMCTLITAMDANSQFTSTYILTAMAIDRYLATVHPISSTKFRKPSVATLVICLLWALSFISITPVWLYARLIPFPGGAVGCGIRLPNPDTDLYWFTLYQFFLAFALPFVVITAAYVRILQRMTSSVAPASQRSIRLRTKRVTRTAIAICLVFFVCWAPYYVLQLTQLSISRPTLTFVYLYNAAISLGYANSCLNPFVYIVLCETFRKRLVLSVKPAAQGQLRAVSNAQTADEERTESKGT
Procathepsin L, sequence (P07711 whole entry): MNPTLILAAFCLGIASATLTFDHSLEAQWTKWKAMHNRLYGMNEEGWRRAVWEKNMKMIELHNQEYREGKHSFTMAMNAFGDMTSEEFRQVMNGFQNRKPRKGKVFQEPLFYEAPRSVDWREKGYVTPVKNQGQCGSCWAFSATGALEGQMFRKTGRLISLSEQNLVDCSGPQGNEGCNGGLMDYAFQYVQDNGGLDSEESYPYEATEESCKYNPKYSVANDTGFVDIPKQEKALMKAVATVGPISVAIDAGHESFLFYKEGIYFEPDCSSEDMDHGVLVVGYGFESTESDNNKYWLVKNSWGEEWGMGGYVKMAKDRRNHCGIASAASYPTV
Cytochrome P450 3A4, sequence (P08684 whole entry): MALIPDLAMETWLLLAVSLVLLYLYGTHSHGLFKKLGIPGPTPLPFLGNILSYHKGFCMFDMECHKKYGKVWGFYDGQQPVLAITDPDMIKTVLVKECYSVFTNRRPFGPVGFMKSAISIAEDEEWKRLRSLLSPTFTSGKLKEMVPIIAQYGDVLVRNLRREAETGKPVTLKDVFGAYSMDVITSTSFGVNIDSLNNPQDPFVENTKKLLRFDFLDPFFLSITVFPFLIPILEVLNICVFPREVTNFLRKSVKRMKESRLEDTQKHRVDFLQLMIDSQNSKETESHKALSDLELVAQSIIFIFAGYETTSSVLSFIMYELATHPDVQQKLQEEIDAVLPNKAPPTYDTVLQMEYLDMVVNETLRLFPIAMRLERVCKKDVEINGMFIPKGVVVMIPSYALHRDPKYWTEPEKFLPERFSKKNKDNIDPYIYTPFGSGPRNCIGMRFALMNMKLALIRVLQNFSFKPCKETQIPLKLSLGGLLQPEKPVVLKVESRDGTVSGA

One may read the IC50 as the concentration that gives 50% inhibition. A word on the EC50: it is the concentration giving half of the maximal effect. Take `CCc1ccccc1NC(=O)CN1C(=O)C2CCCN2c2ncc(Cl)cc21` (configuration not stated): the IC50 in assay [1] and in assay [3] was > 43.8 µM (not active) in each case. Besides, the half-maximal effective concentration (EC50) in assay [2] and in assay [4] was > 20 µM (not active) each time.

Turning to `COC(=O)c1ccc(OCCOc2ccc(C(=O)OC)cc2)cc1`, the EC50 in assay [5] and in assay [6] was > 55.7 µM (not active) throughout.

What is called AC50 is the midpoint of the concentration-response curve, whichever way the signal moves. Regarding `CC1(C)CC(=O)c2c(oc3cc(O)c(O)cc23)C1`, the IC50 in assay [7] is 1.25 µM (active); in assay [9] it was > 59.6 µM (not active). Moreover, in assay [8], the AC50 is 31.6 µM (inconclusive).

In the case of `Cc1ccc(S(=O)(=O)Nc2ccccc2-c2ccccc2)cc1`, the EC50 is > 120 µM (not active) in assay [10]; > 120 µM (not active) in [11]; > 29.9 µM (inactive) in [12]; 1.59 µM (active) in assay [13]; 2.14 µM (active) in [15]; > 29.9 µM (not active) in [16]. For the same compound, the EC50 in [17] is 11.2 µM (active). In addition, in assay [14], the IC50 was 79.9 µM (inactive).
